The results in this text go back to ChEMBL document CHEMBL1128550, “Nonclassical 2,4-diamino-6-(aminomethyl)-5,6,7,8-tetrahydroquinazoline antifolates: synthesis and biological activities” (J Med Chem, 1995).

As a reminder, the IC50 is the midpoint of a concentration-inhibition curve. Read a low IC50 as greater potency. Usually GI50 stands for the concentration that inhibits growth by half.

Assay [1] concerns the target T1, Bifunctional dihydrofolate reductase-thymidylate synthase (Toxoplasma gondii, UniProt Q07422).
T1 sequence (Q07422 whole entry): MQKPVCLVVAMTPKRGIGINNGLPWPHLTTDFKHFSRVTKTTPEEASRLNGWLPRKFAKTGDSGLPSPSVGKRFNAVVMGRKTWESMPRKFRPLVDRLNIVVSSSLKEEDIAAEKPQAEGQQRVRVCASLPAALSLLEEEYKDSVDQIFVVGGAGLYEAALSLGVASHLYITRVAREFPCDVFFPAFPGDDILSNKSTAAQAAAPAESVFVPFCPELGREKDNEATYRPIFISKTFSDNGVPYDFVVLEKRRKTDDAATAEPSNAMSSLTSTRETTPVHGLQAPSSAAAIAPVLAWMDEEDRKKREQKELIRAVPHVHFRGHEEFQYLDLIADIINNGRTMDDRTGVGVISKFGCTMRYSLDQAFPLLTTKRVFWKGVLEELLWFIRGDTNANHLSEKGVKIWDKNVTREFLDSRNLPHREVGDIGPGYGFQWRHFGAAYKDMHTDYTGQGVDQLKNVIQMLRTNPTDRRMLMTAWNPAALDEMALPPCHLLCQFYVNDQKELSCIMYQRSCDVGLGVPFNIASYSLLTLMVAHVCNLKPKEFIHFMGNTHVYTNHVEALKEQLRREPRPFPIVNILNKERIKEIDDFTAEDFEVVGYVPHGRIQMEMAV
As to the kind of experiment: Inhibitory activity against purified Dihydrofolate reductase from Toxoplasma gondii.

Assay [2] has as its target T2, Dihydrofolate reductase (Rattus norvegicus, UniProt Q920D2).
T2 sequence (Q920D2 whole entry): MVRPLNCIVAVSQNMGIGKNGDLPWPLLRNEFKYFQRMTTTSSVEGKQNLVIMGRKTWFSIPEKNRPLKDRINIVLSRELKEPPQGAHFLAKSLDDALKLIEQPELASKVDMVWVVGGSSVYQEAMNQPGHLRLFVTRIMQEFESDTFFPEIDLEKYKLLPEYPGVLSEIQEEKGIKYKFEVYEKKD
As to the kind of experiment: Inhibitory activity against purified dihydrofolate reductase from rat.

For assay [3], the target named is T3, Dihydrofolate reductase (Pneumocystis carinii, UniProt P16184).
T3 sequence (P16184 whole entry): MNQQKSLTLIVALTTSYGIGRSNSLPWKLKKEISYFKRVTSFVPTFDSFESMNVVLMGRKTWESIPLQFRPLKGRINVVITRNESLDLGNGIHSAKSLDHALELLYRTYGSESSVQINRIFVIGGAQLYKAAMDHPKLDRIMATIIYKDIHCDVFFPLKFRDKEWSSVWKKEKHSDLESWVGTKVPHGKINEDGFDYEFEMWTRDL
As to the kind of experiment: Inhibitory activity against purified dihydrofolate reductase from Pneumocystis carinii.

For assay [4], the target named is T1, Bifunctional dihydrofolate reductase-thymidylate synthase. Description: Inhibitory activity against purified DHFR (Dihydrofolate reductase) from Toxoplasma gondii.
Assay [5] deals with T3, Dihydrofolate reductase.
Description: Inhibitory activity against purified DHFR (Dihydrofolate reductase) from Pneumocystis carinii.
For assay [6], the target named is T2, Dihydrofolate reductase.
Description: Inhibitory activity against purified DHFR (Dihydrofolate reductase) from rat
The test system of a further assay is NCI-H460. Description: In vitro activity of compound against non-small cell lung cancer NCI-H460. Format: functional. To be noted: Homo sapiens.
Assay [7] addresses T1, Bifunctional dihydrofolate reductase-thymidylate synthase. As to the kind of experiment: Inhibitory activity against purified DHFR (Dihydrofolate reductase) from Toxoplasma gondii.
In the next assay the test system is K562. Description: In vitro activity of compound against leukemia K-562 cell line. Format: functional, Homo sapiens.

Take `C#CCN(CC1CCc2nc(N)nc(N)c2C1)c1cc(OC)c(OC)c(OC)c1` (stereo not given): the half-inhibitory concentration (IC50) amounted to 0.012 µM in assay [1], 0.074 µM on Dihydrofolate reductase [2] and 0.119 µM against Dihydrofolate reductase [3].

For `Nc1nc(N)c2c(n1)CCC(CN1CCc3ccccc31)C2` (stereo not given), the half-inhibitory concentration (IC50) amounted to 0.027 µM in assay [4], 0.21 µM on Dihydrofolate reductase [5] and 0.16 µM on Dihydrofolate reductase [6].

Consider `CCOc1ccc(OCC)c(NCC2CCc3nc(N)nc(N)c3C2)c1` (stereo not given), for which the half-inhibitory concentration (IC50) is 0.14 µM in assay [4], 1.57 µM against Dihydrofolate reductase [5] and 1.47 µM on Dihydrofolate reductase [6].

`Nc1nc(N)c2c(n1)CCC(CNc1ccc(Cl)c(Cl)c1)C2` (stereo not given): the results for the IC50 (in assay [1]; against Dihydrofolate reductase [2]; against Dihydrofolate reductase [3]) were 0.11 µM, 0.15 µM and 6.8 µM, respectively.

For `Nc1nc(N)c2c(n1)CCC(CNc1cccc3ccccc13)C2` (stereo not given), in the assay on NCI-H460, it took 0.05 µM to inhibit growth by half (GI50). Further, the concentration for half-maximal inhibition (IC50) turned out to be 0.036 µM in [7], 0.517 µM against Dihydrofolate reductase [5] and 0.139 µM against Dihydrofolate reductase [6].

Take `Nc1nc(N)c2c(n1)CCC(CNc1cc(Cl)ccc1Cl)C2` (stereo not given): the figures for the IC50 (in assay [4]; on Dihydrofolate reductase [5]; at Dihydrofolate reductase [6]) were 0.097 µM, 0.41 µM and 0.24 µM, respectively.

On to `CN(CC1CCc2nc(N)nc(N)c2C1)c1cccc2ccccc12` (stereo not given), for which the IC50 amounted to 0.023 µM in assay [1], 0.047 µM against Dihydrofolate reductase [2] and 0.1 µM on Dihydrofolate reductase [3]. In the assay with K562, this molecule gave a GI50 of 0.04 µM.

In the case of `CN(CC1CCc2nc(N)nc(N)c2C1)c1ccc(Cl)c(Cl)c1` (stereo not given), the IC50 in assay [1] was determined as 0.021 µM; on Dihydrofolate reductase [2] it was 0.034 µM; at Dihydrofolate reductase [3], 0.246 µM.

With `CCN(CC1CCc2nc(N)nc(N)c2C1)c1cc(OC)ccc1OC` (stereo not given), the concentration for half-maximal inhibition (IC50) in assay [1] was 0.017 µM; on Dihydrofolate reductase [2], 0.071 µM; against Dihydrofolate reductase [3], 0.114 µM.

On to `COc1ccc(OC)c(N(C)CC2CCc3nc(N)nc(N)c3C2)c1` (stereo not given), for which the IC50 amounted to 0.015 µM in assay [1], 0.26 µM on Dihydrofolate reductase [2] and 0.3 µM against Dihydrofolate reductase [3].

Consider `Nc1nc(N)c2c(n1)CCC(CNc1ccc(Cl)cc1)C2` (stereo not given), for which the concentration for half-maximal inhibition (IC50) was determined as 0.078 µM in assay [4], 0.94 µM against Dihydrofolate reductase [5] and 0.128 µM on Dihydrofolate reductase [6].

In the case of `COc1cc(CN(C)CC2CCc3nc(N)nc(N)c3C2)cc(OC)c1OC` (stereo not given), the IC50 was determined as 0.33 µM in assay [4], 3.1 µM against Dihydrofolate reductase [5] and 1.63 µM at Dihydrofolate reductase [6].

For the molecule `CN(CC1CCc2nc(N)nc(N)c2C1)c1ccc(Cl)cc1` (stereo not given), the IC50 was found to be 0.022 µM in assay [1], 0.067 µM at Dihydrofolate reductase [2] and 0.171 µM against Dihydrofolate reductase [3].

As to `COc1cc(N(C)CC2CCc3nc(N)nc(N)c3C2)cc(OC)c1OC` (stereo not given), the concentration for half-maximal inhibition (IC50) is 0.007 µM in [1], 0.038 µM against Dihydrofolate reductase [2] and 0.095 µM at Dihydrofolate reductase [3].

On to `Nc1nc(N)c2c(n1)CCC(CNc1cccc(Br)c1)C2` (stereo not given), for which the half-inhibitory concentration (IC50) in [1] came out at 0.03 µM; on Dihydrofolate reductase [2] it was 0.227 µM; against Dihydrofolate reductase [3], 0.33 µM.

As to `CCOc1ccc(OCC)c(N(C)CC2CCc3nc(N)nc(N)c3C2)c1` (stereo not given), the half-maximal inhibitory concentration (IC50) in [1] worked out at 0.017 µM; at Dihydrofolate reductase [2], 0.116 µM; against Dihydrofolate reductase [3], 0.319 µM.

In the case of `Nc1nc(N)c2c(n1)CCC(CNc1c(Cl)cccc1Cl)C2` (stereo not given), the IC50 was 0.0099 µM in assay [4], 0.502 µM against Dihydrofolate reductase [5] and 0.109 µM at Dihydrofolate reductase [6].

Turning to `COc1cc(CNCC2CCc3nc(N)nc(N)c3C2)cc(OC)c1OC` (stereo not given), the figures for the half-inhibitory concentration (IC50) against Dihydrofolate reductase [2] and against Dihydrofolate reductase [3] were 12.7 µM and 18.5 µM, respectively.

`COc1ccc(OC)c(NCC2CCc3nc(N)nc(N)c3C2)c1` (stereo not given): the half-maximal inhibitory concentration (IC50) in [1] is 0.181 µM; on Dihydrofolate reductase [2] it was 0.56 µM; on Dihydrofolate reductase [3], 1.67 µM.

As for `COc1cc(NCC2CCc3nc(N)nc(N)c3C2)cc(OC)c1OC` (stereo not given), the 50% inhibitory concentration (IC50) in assay [4] stood at 0.054 µM; against Dihydrofolate reductase [6] it was 0.29 µM.
